Experimental data taken from PubChem BioAssay (NCI).
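Cells were grown in 96-well plates and exposed to each compound for 48 hours at five concentrations; endpoints were interpolated linearly between bracketing concentrations, or set to the highest concentration if not reached. Definition used: TGI = concentration required for complete inhibition of growth.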

Columns and labels:
Assay in all cases: NCI anticancer screen, dose series, 48 h
XF 498 CNS = test system: XF 498 CNS
SF-268 CNS = test system: SF-268 CNS
SK-MEL-2 melanoma = test system: SK-MEL-2 melanoma
OVCAR-3 ovarian = test system: OVCAR-3 ovarian
M14 melanoma = test system: M14 melanoma
SK-MEL-5 melanoma = test system: SK-MEL-5 melanoma
NCI-H460 lung = test system: NCI-H460 lung
KM20L2 colon = test system: KM20L2 colon
HL-60(TB) leukemia = test system: HL-60(TB) leukemia
SN12C renal = test system: SN12C renal
HOP-62 NSCLC = test system: HOP-62 NSCLC
DMS 273 small cell lung = test system: DMS 273 small cell lung
RXF 393 renal = test system: RXF 393 renal
M19-MEL melanoma = test system: M19-MEL melanoma
COLO 205 colon = test system: COLO 205 colon
ACHN renal = test system: ACHN renal
SK-OV-3 ovarian = test system: SK-OV-3 ovarian
TK-10 renal = test system: TK-10 renal
SF-295 CNS = test system: SF-295 CNS
MOLT-4 leukemia = test system: MOLT-4 leukemia
UACC-257 melanoma = test system: UACC-257 melanoma
SK-MEL-28 melanoma = test system: SK-MEL-28 melanoma
RPMI-8226 leukemia = test system: RPMI-8226 leukemia
OVCAR-5 ovarian = test system: OVCAR-5 ovarian
DLD-1 colon = test system: DLD-1 colon
SNB-78 CNS = test system: SNB-78 CNS
LOX IMVI melanoma = test system: LOX IMVI melanoma
HCT-116 colon = test system: HCT-116 colon
OVCAR-8 ovarian = test system: OVCAR-8 ovarian
NCI-H23 lung = test system: NCI-H23 lung
NCI-H522 lung = test system: NCI-H522 lung
SNB-19 CNS = test system: SNB-19 CNS
A498 renal = test system: A498 renal
SW-620 colon = test system: SW-620 colon
NCI-H226 lung = test system: NCI-H226 lung
KM12 colon = test system: KM12 colon
A549 NSCLC = test system: A549 NSCLC
HT29 colon = test system: HT29 colon
DMS 114 small cell lung = test system: DMS 114 small cell lung
UO-31 renal = test system: UO-31 renal
HOP-92 NSCLC = test system: HOP-92 NSCLC
HOP-18 NSCLC = test system: HOP-18 NSCLC
HCT-15 colon = test system: HCT-15 colon
RXF-631 renal = test system: RXF-631 renal
786-0 renal = test system: 786-0 renal
MALME-3M melanoma = test system: MALME-3M melanoma
UACC-62 melanoma = test system: UACC-62 melanoma
HCC-2998 colon = test system: HCC-2998 colon
SF-539 CNS = test system: SF-539 CNS
LXFL 529 NSCLC = test system: LXFL 529 NSCLC
CAKI-1 renal = test system: CAKI-1 renal
U251 CNS = test system: U251 CNS
EKVX NSCLC = test system: EKVX NSCLC
SNB-75 CNS = test system: SNB-75 CNS
IGROV1 ovarian = test system: IGROV1 ovarian
OVCAR-4 ovarian = test system: OVCAR-4 ovarian
CCRF-CEM leukemia = test system: CCRF-CEM leukemia
SR leukemia = test system: SR leukemia
K-562 leukemia = test system: K-562 leukemia

SMILES: OCC(O)COc1c(Cl)cc(Cl)cc1Cl (centres undefined)
- TGI (XF 498 CNS): > 100 µM
- TGI (SF-268 CNS): > 100 µM
- TGI (SK-MEL-2 melanoma): > 100 µM
- TGI (OVCAR-3 ovarian): > 100 µM
- TGI (M14 melanoma): > 100 µM
- TGI (SK-MEL-5 melanoma): > 100 µM
- TGI (NCI-H460 lung): > 100 µM
- TGI (KM20L2 colon): > 100 µM
- TGI (HL-60(TB) leukemia): > 100 µM
- TGI (SN12C renal): > 100 µM
- TGI (HOP-62 NSCLC): > 100 µM
- TGI (DMS 273 small cell lung): > 100 µM
- TGI (RXF 393 renal): > 100 µM
- TGI (M19-MEL melanoma): > 100 µM
- TGI (COLO 205 colon): > 100 µM
- TGI (ACHN renal): > 100 µM
- TGI (SK-OV-3 ovarian): > 100 µM
- TGI (TK-10 renal): > 100 µM
- TGI (SF-295 CNS): > 100 µM
- TGI (MOLT-4 leukemia): > 31.6 µM
- TGI (UACC-257 melanoma): > 100 µM
- TGI (SK-MEL-28 melanoma): > 100 µM
- TGI (RPMI-8226 leukemia): > 64.6 µM
- TGI (OVCAR-5 ovarian): > 100 µM
- TGI (DLD-1 colon): > 100 µM
- TGI (SNB-78 CNS): > 100 µM
- TGI (LOX IMVI melanoma): > 74.1 µM
- TGI (HCT-116 colon): > 100 µM
- TGI (OVCAR-8 ovarian): > 100 µM
- TGI (NCI-H23 lung): > 100 µM
- TGI (NCI-H522 lung): > 100 µM
- TGI (SNB-19 CNS): > 100 µM
- TGI (A498 renal): > 100 µM
- TGI (SW-620 colon): > 51.9 µM
- TGI (NCI-H226 lung): > 100 µM
- TGI (KM12 colon): > 100 µM
- TGI (A549 NSCLC): > 100 µM
- TGI (HT29 colon): > 100 µM
- TGI (DMS 114 small cell lung): > 100 µM
- TGI (UO-31 renal): > 100 µM
- TGI (HOP-92 NSCLC): > 100 µM
- TGI (HOP-18 NSCLC): > 100 µM
- TGI (HCT-15 colon): > 100 µM
- TGI (RXF-631 renal): > 100 µM
- TGI (786-0 renal): > 76.5 µM
- TGI (MALME-3M melanoma): > 100 µM
- TGI (UACC-62 melanoma): > 100 µM
- TGI (HCC-2998 colon): > 100 µM
- TGI (SF-539 CNS): > 100 µM
- TGI (LXFL 529 NSCLC): > 100 µM
- TGI (CAKI-1 renal): > 100 µM
- TGI (U251 CNS): > 100 µM
- TGI (EKVX NSCLC): > 100 µM
- TGI (SNB-75 CNS): > 100 µM
- TGI (IGROV1 ovarian): > 100 µM
- TGI (OVCAR-4 ovarian): > 100 µM
- TGI (CCRF-CEM leukemia): > 61.9 µM
- TGI (SR leukemia): > 100 µM
- TGI (K-562 leukemia): > 66.1 µM
